According to publication PMC12062876, “Efficient constitution of a library of rotenoid analogs active against Trypanosoma cruzi from a digitalized plant extract collection” (RSC Advances, 2025):
Read-outs that look alike come from different tables or passages of the source.

How the values were obtained:
T. cruzi amastigotes [1] = assay: Activity against intracellular T. cruzi amastigotes; type: cell-based, Trypanosoma cruzi; conditions: for Selectivity index: SI = IC50 cytotoxicity/IC50 against T. cruzi; for IC50: Trypanosoma cruzi, read-out: IC50 T. cruzi amastigotes; for activity against T. cruzi (in words): intracellular amastigotes
Excerpt: The bioactivity of isolated compounds against intracellular T. cruzi amastigotes grown in rat L6 […] is presented in Table 1. […] Rotenone and deguelin are known to be strong mitochondrial complex I (also known as NADH:ubiquinone oxidoreductase) inhibitors,[43–45] while different activities between closely related rotenoids (rotenone, 5′-α-epirotenone, and 5′-β-epirotenone) has already been shown. […] The variation in activity observed on our rapidly generated series of structural analogs points in the same direction. As shown in Fig. 3 and Table 1, the cyclic and bent form of the rotenoid at the B/C ring junction is essential for activity, since compounds 40 and 41 were not active.
The pure compounds activity was assessed against T. cruzi amastigotes as described in ref. [27].

[2] = Cytotoxicity assay: L-6 cells; type: cell-based; conditions: rat skeletal myoblast (L6 cells); means of two independent assays
Protocol: The pure compounds cytotoxicity was assessed against L6 cells as described in ref. [27].

T. cruzi amastigotes [3] = conditions: commercial standards; cited from earlier work
Haemonchus contortus = conditions: cited from earlier work
[4] = tested on: L6 cells (rat skeletal myoblast); conditions: commercial standards; cited from earlier work
[5] = intracellular amastigotes grown in rat L6 cells, means of two independent assays

SMILES: COc1c2c(cc3ccoc13)C(=O)[C@@]1(O)c3cc4c(cc3OC[C@H]1O2)OCO4 (relative stereo) [Compound 29, 12a-hydroxypachyrhizone]
- Selectivity index (T. cruzi amastigotes [1]): 1.3
- IC50 (T. cruzi amastigotes [1]; [5]): 93.2 µM
- IC50 [2]: 125 µM

SMILES: O=C1c2cc3ccoc3cc2O[C@@H]2COc3cc4c(cc3[C@]12O)OCO4 (relative stereo) [Compound 30, 12a-hydroxydolineone]
- Selectivity index (T. cruzi amastigotes [1]): 0.7
- IC50 (T. cruzi amastigotes [1]; [5]): 195 µM
- IC50 [2]: 141 µM

SMILES: COc1cc2c(cc1OC)[C@]1(O)C(=O)c3cc4ccoc4cc3O[C@@H]1CO2 (relative stereo) [Compound 31, 12a-hydroxyerosone]
- Selectivity index (T. cruzi amastigotes [1]): 5.7
- IC50 (T. cruzi amastigotes [1]; [5]): 19.7 µM
- IC50 [2]: 113 µM

SMILES: COc1cc2c(cc1OC)[C@@H]1C(=O)c3cc4ccoc4cc3O[C@@H]1CO2 (relative stereo) [Compound 32, erosone]
- Selectivity index (T. cruzi amastigotes [1]): 2.9
- IC50 (T. cruzi amastigotes [1]; [5]): 39.3 µM
- IC50 [2]: 115 µM

SMILES: COc1cc2c(cc1OC)[C@]1(O)[C@H](OC(C)=O)c3ccc4occc4c3O[C@@H]1CO2 (relative stereo) [Compound 33, 12-deoxo-12α-acetoxy-12a-β-hydroxyelliptone]
- Selectivity index (T. cruzi amastigotes [1]): 1.5
- IC50 (T. cruzi amastigotes [1]; [5]): 65.1 µM
- IC50 [2]: 98.2 µM

SMILES: CC(=O)OC1C2c3c(ccc4c3OC(c3ccccc3)CC4=O)OC2OC1(C)C (single isomer, unassigned; (-)) [Compound 11, (−)-purpurin]
- Selectivity index (T. cruzi amastigotes [1]): 3.5
- IC50 (T. cruzi amastigotes [1]; [5]): 1.78 µM
- IC50 [2]: 6.25 µM

SMILES: O=C(Cn1ccnc1[N+](=O)[O-])NCc1ccccc1 [Benznidazole, reference compound]
- IC50 (T. cruzi amastigotes [1]; [5]): 3.14 µM

SMILES: COc1cc(O)ccc1[C@@H]1COc2cc(O)c(CC=C(C)C)cc2C1 [Compound 1, 2′-O-methylmanuifolin H]
- Selectivity index (T. cruzi amastigotes [1]): 3.5
- IC50 (T. cruzi amastigotes [1]; [5]): 28.2 µM
- IC50 [2]: 99 µM

SMILES: CC(C)=CCc1cc2c(cc1O)OCC(c1ccc(O)cc1)C2O (stereo not shown) [Compound 2, bavaisoflavanol]
- Selectivity index (T. cruzi amastigotes [1]): 1.1
- IC50 (T. cruzi amastigotes [1]; [5]): 43.1 µM
- IC50 [2]: 49.5 µM

SMILES: CC(C)=CCc1cc2c(cc1O)OC[C@@H](c1ccc(O)cc1O)C2 [Compound 3, manuifolin H]
- Selectivity index (T. cruzi amastigotes [1]): 3.7
- IC50 (T. cruzi amastigotes [1]; [5]): 28.3 µM
- IC50 [2]: 106 µM

SMILES: COc1cc(O)ccc1C1COc2cc(O)ccc2C1 (stereo not shown) [Compound 4, 7,4′-dihydroxy-2′-methoxyisoflavan]
- Selectivity index (T. cruzi amastigotes [1]): 1.4
- IC50 (T. cruzi amastigotes [1]; [5]): 247 µM
- IC50 [2]: 358 µM

SMILES: COc1cc2c(cc1C1COc3cc(O)ccc3C1)OCO2 (stereo not shown) [Compound 5, astraciceran]
- Selectivity index (T. cruzi amastigotes [1]): 0.8
- IC50 (T. cruzi amastigotes [1]; [5]): 94.1 µM
- IC50 [2]: 75.4 µM

SMILES: COc1cc(O)ccc1C1COc2cc3c(cc2C1)CC(C(C)(C)O)O3 (stereo not shown) [Compound 6, 4-(2-(2-hydroxypropan-2-yl)-2,3,6,7-tetrahydro-5H-furo[3,2-g]chromen-6-yl)-3-methoxyphenol]
- Selectivity index (T. cruzi amastigotes [1]): 0.8
- IC50 (T. cruzi amastigotes [1]; [5]): 203 µM
- IC50 [2]: 154 µM

SMILES: CC(C)=CCc1c(O)ccc(C(=O)/C=C/c2ccc(O)cc2)c1O [Compound 7, isobavachalcone]
- Selectivity index (T. cruzi amastigotes [1]): 1.7
- IC50 (T. cruzi amastigotes [1]; [5]): 60.1 µM
- IC50 [2]: 104 µM

SMILES: COc1c(C(=O)/C=C(\O)c2ccccc2)ccc2occc12 [Compound 8, pongamol]
- Selectivity index (T. cruzi amastigotes [1]): 2.7
- IC50 (T. cruzi amastigotes [1]; [5]): 26.8 µM
- IC50 [2]: 73.6 µM

SMILES: C=C(C)/C=C/c1c(OC)ccc2c1OC(c1ccccc1)CC2=O (stereo not shown) [Compound 9, dehydroisoderricin]
- Selectivity index (T. cruzi amastigotes [1]): 1.4
- IC50 (T. cruzi amastigotes [1]; [5]): 66.2 µM
- IC50 [2]: 95.4 µM

SMILES: O=c1cc(-c2ccccc2)oc2c1ccc1occc12 [Compound 10, lanceolatin B]
- Selectivity index (T. cruzi amastigotes [1]): 13.6
- IC50 (T. cruzi amastigotes [1]; L6, in Rattus norvegicus): 9.58 µM
- IC50 [2]: 130 µM

SMILES: CC(=O)OC(C1COc2ccc3c(c21)OC(c1ccc(O)cc1)CC3=O)C(C)(C)O (stereo not shown) [Compound 12, 2-hydroxy-1-(2-(4-hydroxyphenyl)-4-oxo-3,4,8,9-tetrahydro-2H-furo[2,3-h]chromen-9-yl)-2-methylpropyl acetate]
- Selectivity index (T. cruzi amastigotes [1]): 1.7
- IC50 (T. cruzi amastigotes [1]; [5]): 58.8 µM
- IC50 [2]: 99.4 µM

SMILES: CC(=O)OC(C1COc2ccc3c(c21)OC(c1ccccc1)CC3=O)C(C)(C)O (stereo not shown) [Compound 13, 2-hydroxy-2-methyl-1-(4-oxo-2-phenyl-3,4,8,9-tetrahydro-2H-furo[2,3-h]chromen-9-yl)propyl acetate]
- Selectivity index (T. cruzi amastigotes [1]): 1.1
- IC50 (T. cruzi amastigotes [1]; [5]): 123 µM
- IC50 [2]: 131 µM

SMILES: CC(C)(O)C(OC(=O)C=Cc1ccccc1)C1COc2ccc3c(c21)OC(c1ccccc1)CC3=O (stereo not shown) [Compound 14, 2-hydroxy-2-methyl-1-(4-oxo-2-phenyl-3,4,8,9-tetrahydro-2H-furo[2,3-h]chromen-9-yl)propyl cinnamate]
- Selectivity index (T. cruzi amastigotes [1]): 5.1
- IC50 (T. cruzi amastigotes [1]; [5]): 16 µM
- IC50 [2]: 81.6 µM

SMILES: Oc1ccc2c(c1)OC[C@H]1c3cc4c(cc3O[C@@H]21)OCO4 [Compound 16, maackiain]
- Selectivity index (T. cruzi amastigotes [1]): 1.3
- IC50 (T. cruzi amastigotes [1]; [5]): 119 µM
- IC50 [2]: 156 µM

SMILES: C=C(C)[C@H]1Cc2cc3c(cc2O1)OC[C@H]1c2cc4c(cc2O[C@@H]31)OCO4 [Compound 17, emoroidocarpan]
- Selectivity index (T. cruzi amastigotes [1]): 1.8
- IC50 (T. cruzi amastigotes [1]; [5]): 47.8 µM
- IC50 [2]: 84.8 µM

SMILES: C=C(CO)C1Cc2cc3c(cc2O1)OCC1c2cc4c(cc2OC31)OCO4 (stereo not drawn) [Compound 18, (2′R)-4′-hydroxyemoroidocarpan]
- Selectivity index (T. cruzi amastigotes [1]): 2.9
- IC50 (T. cruzi amastigotes [1]; [5]): 40.1 µM
- IC50 [2]: 118 µM

SMILES: C=C(C)[C@H]1Cc2cc3c(cc2O1)oc(=O)c1c2cc4c(cc2oc31)OCO4 [Compound 19, tephcalostan]
- Selectivity index (T. cruzi amastigotes [1]): 1.8
- IC50 (T. cruzi amastigotes [1]; [5]): 65.6 µM
- IC50 [2]: 119 µM

SMILES: CC1(C)C=Cc2c(ccc(-c3coc4cc(O)ccc4c3=O)c2O)O1 [Compound 20, glabrone]
- Selectivity index (T. cruzi amastigotes [1]): 1.2
- IC50 (T. cruzi amastigotes [1]; [5]): 149 µM
- IC50 [2]: 186 µM

SMILES: CC1(C)C=Cc2c(ccc(-c3coc4cc(O)c(O)cc4c3=O)c2O)O1 [Compound 21, 5′,6,7-trihydroxy-2′,2′-dimethyl-2′H,4H-[3,6′-bichromen]-4-one]
- Selectivity index (T. cruzi amastigotes [1]): 1.4
- IC50 (T. cruzi amastigotes [1]; [5]): 56.8 µM
- IC50 [2]: 76.6 µM

SMILES: COc1ccc(-c2coc3cc(O)ccc3c2=O)cc1 [Compound 22, formononetin]
- Selectivity index (T. cruzi amastigotes [1]): 1.0
- IC50 (T. cruzi amastigotes [1]; [5]): 217 µM
- IC50 [2]: 224 µM

SMILES: COc1c(-c2coc3cc4c(cc3c2=O)C=CC(C)(C)O4)ccc2c1C=CC(C)(C)O2 [Compound 23, munetone]
- Selectivity index (T. cruzi amastigotes [1]): 5.3
- IC50 (T. cruzi amastigotes [1]; [5]): 7.35 µM
- IC50 [2]: 38.8 µM

SMILES: COc1cc2occ(-c3ccc4c(c3)OCO4)c(=O)c2cc1O [Compound 24, acicerone]
- Selectivity index (T. cruzi amastigotes [1]): 2.1
- IC50 (T. cruzi amastigotes [1]; [5]): 86.8 µM
- IC50 [2]: 186 µM

SMILES: COc1ccc(-c2coc3cc(OC)c(O)cc3c2=O)cc1 [Compound 25, alfalone]
- Selectivity index (T. cruzi amastigotes [1]): 1.1
- IC50 (T. cruzi amastigotes [1]; [5]): 241 µM
- IC50 [2]: 263 µM

SMILES: CC(C)=CCc1c(O)cc2occ(-c3ccc(O)cc3)c(=O)c2c1O [Compound 27, wighteone]
- Selectivity index (T. cruzi amastigotes [1]): 2.2
- IC50 (T. cruzi amastigotes [1]; [5]): 46.6 µM
- IC50 [2]: 104 µM

SMILES: COc1cc2c(cc1-c1coc3cc4occc4cc3c1=O)OCO2 [Compound 28, dehydroneotenone]
- Selectivity index (T. cruzi amastigotes [1]): 5.1
- IC50 (T. cruzi amastigotes [1]; [5]): 3.59 µM
- IC50 [2]: 18.3 µM

SMILES: COc1cc2c(cc1OC)C1C(CO2)Oc2c(ccc3occc23)C1OC(C)=O (stereo not drawn) [Compound 34, 12-deoxo-12α-acetoxyelliptone]
- Selectivity index (T. cruzi amastigotes [1]): 3.8
- IC50 (T. cruzi amastigotes [1]; [5]): 27.1 µM
- IC50 [2]: 104 µM

SMILES: COc1cc2c(cc1OC)[C@@H]1C(=O)c3ccc4occc4c3O[C@@H]1CO2 [Compound 35, elliptone]
- Selectivity index (T. cruzi amastigotes [1]): 5.4
- IC50 (T. cruzi amastigotes [1]; [5]): 18.2 µM
- IC50 [2]: 99 µM

SMILES: COc1cc2c(cc1OC)[C@]1(O)C(=O)c3ccc4occc4c3O[C@@H]1CO2 [Compound 36, 12a-hydroxyelliptone]
- Selectivity index (T. cruzi amastigotes [1]): 18.5
- IC50 (T. cruzi amastigotes [1]; [5]): 5.42 µM
- IC50 [2]: 100 µM

SMILES: C=C(C)[C@H]1Cc2c(ccc3c2O[C@@H]2COc4cc(OC)c(OC)cc4[C@@H]2C3=O)O1 [Compound 37, rotenone]
- Selectivity index (T. cruzi amastigotes [1]): 51.7
- IC50 (T. cruzi amastigotes [1]; L6, in Rattus norvegicus): 0.01 µM
- IC50 [2]: 0.48 µM
- IC50 against the amastigote form of the parasite (T. cruzi amastigotes [3]): nanomolar
- nematocidal activity (Haemonchus contortus): potent nematocidal activity
- toxicity to the host cell [4]: without toxicity

SMILES: COc1cc2c(cc1OC)[C@]1(O)C(=O)c3ccc4c(c3O[C@@H]1CO2)C=CC(C)(C)O4 [Compound 38, tephrosin]
- Selectivity index (T. cruzi amastigotes [1]): 1937.0
- IC50 (T. cruzi amastigotes [1]; L6, in Rattus norvegicus): 0.04 µM
- IC50 [2]: 72.4 µM

SMILES: COc1cc2c(cc1OC)[C@@H]1C(=O)c3ccc4c(c3O[C@@H]1CO2)C=CC(C)(C)O4 [Compound 39, deguelin]
- Selectivity index (T. cruzi amastigotes [1]): 1148.5
- IC50 (T. cruzi amastigotes [1]; [5]): 0.02 µM
- IC50 [2]: 19.4 µM
- IC50 against the amastigote form of the parasite (T. cruzi amastigotes [3]): nanomolar
- nematocidal activity (Haemonchus contortus): potent nematocidal activity
- toxicity to the host cell [4]: without toxicity

SMILES: CC1(C)C=Cc2c(ccc3c(=O)c(-c4cc(O)c5c(c4)OCO5)coc23)O1 [Compound 40, norisojamaicin]
- Selectivity index (T. cruzi amastigotes [1]): 5.7
- IC50 (T. cruzi amastigotes [1]; [5]): 21.8 µM
- activity against T. cruzi (in words) (T. cruzi amastigotes [1]): not active
- IC50 [2]: 123 µM

SMILES: COc1ccc(-c2coc3c4c(cc(O)c3c2=O)OC(C)(C)C=C4)cc1O [Compound 41, 3′-hydroxy-4′-O-metyhlerrone]
- Selectivity index (T. cruzi amastigotes [1]): 6.9
- IC50 (T. cruzi amastigotes [1]; [5]): 8.04 µM
- activity against T. cruzi (in words) (T. cruzi amastigotes [1]): not active
- IC50 [2]: 55.7 µM

SMILES: COc1cc([C@@H]2c3cc4c(cc3[C@H](O)[C@H]3COC(=O)[C@H]23)OCO4)cc(OC)c1OC [Podophyllotoxin, reference compound]
- IC50 [2]: 0.02 µM
